Laboratory results reported in patent US20030228621A1, “Common ligand universal enzyme assay and compositions for use therein” (priority 2002, published 2003).
Read-outs that look alike come from different tables or passages of the source.

What was measured:
[1] = biological target: T1, dihydrodipicolinate reductase (DHPR) (Escherichia coli, UniProt P04036); assay: Fluorescence polarization displacement of FITC-NADH from dihydrodipicolinate reductase; format: binding
Experimental: FITC-NADH was dissolved in 10 mM TAPS buffer with 5% NaHCO3, pH=8. The final concentration of FITC-NADH was 150 μM. In later experiments 150 μM FITC-NADH was diluted to the desired concentration in 20 mM Potassium Phosphate buffer, pH=7.4. Fluorescence polarization was monitored using a Beacon 2000 Variable Temperature Fluorescence Polarization System (PanVera Corporation, Madison, Wis.) and an LJL Analyst HT 96-384 (Molecular Devices Corporation, Sunnyvale, Calif.). The concentration of FITC-NADH as fluorescent tracer was selected by measuring fluorescence polarization of varying concentrations of FITC-NADH in 10 mM Potassium Phosphate buffer, pH=7.4. The concentration range was 0.15 nM—15 nM. For the best signal to noise ratio regarding both the horizontal and vertical intensities that contribute to the fluorescence polarization value, a concentration of 25 nM was chosen for FITC-NADH in the majority of experiments.
The fluorescence polarization of solutions of 7 μM dihydrodipicolinate reductase and 25 nM FITC-NADH with NADH was measured. The concentration of dihydrodipicolinate reductase was such that a solution of dihydrodipicolinate reductase and FITC-NADH would give the fluorescence polarization mP value of 220-230 mP. The blank was protein in buffer and NADH. […] The data was fitted to the following equation:
mP=YH′−(YH′−YL)*(1/(1+Kd^app/C))
Kd=Kd^app*(1/(1+A/Kd^tracer))
(§1) where C is the concentration of NADH; A is the concentration of enzyme; YH′ is the polarization for the FITC-NADH at the specified enzyme concentration in the absence of NADH; YL is the polarization for FITC-NADH when fully displaced from the enzyme by NADH; and Kd^tracer is the dissociation constant of the enzyme for FITC-NADH.
The displacement of FITC-NADH from dihydrodipicolinate reductase in the presence of the candidate inhibitor compound bromaminic acid, an NMNH-mimic (nicotinamide mononucleotide mimic), was measured by fluorescence polarization assay. The concentration of dihydrodipicolinate reductase was such that dihydrodipicolinate reductase in the presence of FITC-NADH would give the fluorescence polarization, mP, value of 220-230. Protein in buffer combined with the inhibitor was used as the blank.
The Log(bromaminic acid, μM) versus Polarization (mP) data were fitted to the following equation: […]
as §1
In this assay, enzyme in the presence of the ligand has less FITC-NADPH bound if both of the ligands compete for the same site.
(§2) A population of 620 compounds were screened in the competitive displacement assay described herein. […] These compounds are depicted in FIG. 16.

DHPR = DHPR (Escherichia coli, UniProt P04036); assay: Intrinsic fluorescence of the compound upon binding to the enzyme; conditions: excitation 365 nm, emission 435 nm
Text: It can be used either as a tracer for the screening, with or without being labeled with a detectable moiety of the invention. As such, this compound can be used for screening candidate ligands.

[2] = biological target: Lactate dehydrogenase (LDH); assay: Enzyme activity in presence and absence of varying concentration of dye, LDH; format: biochemical; conditions: read-out: Inhibition (IC50, nM) LDH
Experimental: (§3) In search for specific ligands with potent binding to several dehydrogenases we screened our internal enzyme panel. In brief, activity of the enzymes was measured in the presence and absence of the varying concentration of the dyes.

dehydrogenases = assay: Extent and reversibility of inhibition of the dehydrogenase panel by triazinyl dyes; format: biochemical
Experimental: as §3
Since all of the dye molecules have a triazinyl reactive group, reversibility of the inhibition was checked.
(§4) In this assay, the oxidoreductase common ligand (NADPH) was employed at a concentration sixteen times its Km value. Use of such a high concentration of oxidoreductase common ligand results in a calculated IC50 value at least 17-fold that of the dissociation constant (Kd).

[3] = biological target: Enoyl-acyl carrier protein reductase (EACPR) (Escherichia coli, UniProt P0AEK4); assay: Enzyme activity in presence and absence of varying concentration of dye, EACPR; format: biochemical; conditions: read-out: Inhibition (IC50, nM) EACPR
Experimental: as §3

[4] = biological target: Deoxy-D-xylulose 5-phosphate reductoisomerase (DOXPR) (Escherichia coli, UniProt P45568); assay: Enzyme activity in presence and absence of varying concentration of dye, DOXPR; format: biochemical; conditions: for IC50: NADPH at sixteen times its Km, read-out: Inhibition (IC50, nM) DOXPR
Experimental: as §3, §4

[5] = biological target: T1, dihydrodipicolinate reductase (DHPR); assay: Enzyme activity in presence and absence of varying concentration of dye, DHPR; format: biochemical; conditions: for IC50: read-out: Inhibition (IC50, nM) DHPR
Experimental: as §3

[6] = biological target: T2, 3-Hydro-3-methyl-glutaryl-CoA reductase (HMGCoAR) (Homo sapiens, UniProt P04035); assay: Enzyme activity in presence and absence of varying concentration of dye, HMGCoAR; format: biochemical; conditions: read-out: Inhibition (IC50, nM) HMGCoAR
T2 sequence (P04035 1-888): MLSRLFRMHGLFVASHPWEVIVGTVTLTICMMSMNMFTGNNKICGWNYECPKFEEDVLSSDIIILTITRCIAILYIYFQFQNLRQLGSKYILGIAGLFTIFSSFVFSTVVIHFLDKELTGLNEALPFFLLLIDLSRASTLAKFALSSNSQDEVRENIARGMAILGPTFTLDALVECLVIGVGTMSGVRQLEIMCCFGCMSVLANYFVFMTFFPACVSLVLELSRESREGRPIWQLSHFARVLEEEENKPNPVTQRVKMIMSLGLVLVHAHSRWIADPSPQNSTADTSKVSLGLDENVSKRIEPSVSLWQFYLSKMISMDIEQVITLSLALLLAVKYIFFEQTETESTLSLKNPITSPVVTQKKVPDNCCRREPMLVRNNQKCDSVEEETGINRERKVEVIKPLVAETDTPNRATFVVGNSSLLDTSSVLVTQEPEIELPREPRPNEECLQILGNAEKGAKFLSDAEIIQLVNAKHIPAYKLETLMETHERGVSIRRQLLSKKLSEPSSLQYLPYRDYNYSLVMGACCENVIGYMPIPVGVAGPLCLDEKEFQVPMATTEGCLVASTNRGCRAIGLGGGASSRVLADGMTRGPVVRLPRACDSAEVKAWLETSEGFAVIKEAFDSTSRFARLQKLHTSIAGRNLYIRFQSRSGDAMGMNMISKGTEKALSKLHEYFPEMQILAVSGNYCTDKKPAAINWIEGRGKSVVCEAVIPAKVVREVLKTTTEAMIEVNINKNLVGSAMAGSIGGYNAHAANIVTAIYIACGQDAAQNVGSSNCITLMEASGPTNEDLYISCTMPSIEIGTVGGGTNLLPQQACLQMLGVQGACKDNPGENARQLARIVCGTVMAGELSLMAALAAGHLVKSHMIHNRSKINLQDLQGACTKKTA
Experimental: as §3

[7] = biological target: 1-deoxy-D-xylulose 5-phosphate reductoisomerase (DOXPR) (Escherichia coli, UniProt P45568); assay: Displacement of FITC-NADPH from the FITC-NADPH:DOXPR complex (FIG. 14A, 14B); format: binding; conditions: displacement of FITC-NADPH tracer from DOXPR
Text: (§5) The competitive binding of the dye common ligands of the present invention can be evaluated by use of a displacement assay. In particular, enzyme in the presence of a competitive ligand will have less FITC-NADPH bound if both ligands compete for the same site. […] The dye common ligands of the present invention can completely displace FITC-NADPH from complexes containing this fluorescent tracer and a dehydrogenase. […] Thus, dye common ligands of the invention are useful in displacement assays to study the activity of an oxidoreductase, particularly those having unknown function.
(§6) In competitive assays, the tested dyes displaced the fluorescent-based tracer FITC-NADPH, implying that the dyes bind to DOXPR at the common ligand site. In this assay, enzyme in the presence of the ligand has less FITC-NADPH bound if both of the ligands compete for the same site. […] Calculated Kd values were based on curve shape and were lower than the experimentally determined IC50s.

DOXPR = DOXPR (Escherichia coli, UniProt P45568); assay: Displacement of FITC-NADPH from the FITC-NADPH:DOXPR complex; format: binding
Text: as §5, §6, §2

[8] = 7 μM DHPR, 25 nM FITC-NADH, not corrected for enzyme concentration, read-out: Kapp (Kd app), displacement of FITC-NADH
[9] = 7 μM DHPR, 25 nM FITC-NADH, read-out: actual Kd after correction for enzyme concentration
[10] = calculated from curve shape, read-out: Kd from displacement experiments with FITC-NADH and DHPR

T1 sequence (P04036 whole entry): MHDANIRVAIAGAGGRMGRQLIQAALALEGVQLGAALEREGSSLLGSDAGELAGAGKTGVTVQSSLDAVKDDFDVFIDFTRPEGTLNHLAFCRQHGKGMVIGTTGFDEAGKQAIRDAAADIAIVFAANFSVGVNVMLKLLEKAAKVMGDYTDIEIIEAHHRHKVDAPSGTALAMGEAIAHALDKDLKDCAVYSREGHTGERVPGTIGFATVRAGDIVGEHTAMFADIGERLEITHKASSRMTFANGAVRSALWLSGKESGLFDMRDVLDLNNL
Sequence of Deoxy-D-xylulose 5-phosphate reductoisomerase (DOXPR) (P45568 whole entry): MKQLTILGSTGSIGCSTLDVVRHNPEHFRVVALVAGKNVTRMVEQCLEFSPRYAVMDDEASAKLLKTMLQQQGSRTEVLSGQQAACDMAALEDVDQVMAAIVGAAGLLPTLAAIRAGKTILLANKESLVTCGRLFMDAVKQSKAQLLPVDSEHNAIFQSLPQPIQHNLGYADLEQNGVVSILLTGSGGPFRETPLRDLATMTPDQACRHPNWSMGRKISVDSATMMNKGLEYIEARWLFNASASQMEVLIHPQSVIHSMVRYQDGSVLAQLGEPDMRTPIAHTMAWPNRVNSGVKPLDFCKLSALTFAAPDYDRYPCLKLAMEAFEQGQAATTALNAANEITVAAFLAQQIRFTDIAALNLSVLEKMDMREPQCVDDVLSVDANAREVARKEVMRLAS
Sequence of DOXPR (P45568 whole entry): as above
Sequence of 1-deoxy-D-xylulose 5-phosphate reductoisomerase (DOXPR) (P45568 whole entry): as above
Sequence of Enoyl-acyl carrier protein reductase (EACPR) (P0AEK4 whole entry): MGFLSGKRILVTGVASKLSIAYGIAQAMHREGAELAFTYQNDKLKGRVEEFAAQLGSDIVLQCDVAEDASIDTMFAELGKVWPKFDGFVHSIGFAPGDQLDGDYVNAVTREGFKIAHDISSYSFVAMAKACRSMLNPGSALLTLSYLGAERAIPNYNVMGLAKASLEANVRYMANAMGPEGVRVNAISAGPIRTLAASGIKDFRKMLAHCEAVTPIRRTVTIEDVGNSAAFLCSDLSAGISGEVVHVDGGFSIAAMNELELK
Sequence of DHPR (P04036 whole entry): as the sequence (P04036 whole entry) above

Q: What does the source list for O=S(=O)(O)c1cc(Nc2nc(Nc3ccccc3)nc(N(CCO)CCO)n2)ccc1/C=C\c1ccc(Nc2nc(Nc3ccccc3)nc(N(CCO)CCO)n2)cc1S(=O)(=O)O?
A: Kd ([1]; compound from screen of 620 compounds, read-out: kd, tight binding to DHPR): < 100 nM; increase in intrinsic fluorescence upon binding to the enzyme (DHPR): 3 fold

Q: NC(=O)C1=CN([C@@H]2O[C@H](COP(=O)(O)OP(=O)(O)OC[C@H]3O[C@@H](n4cnc5c(N)ncnc54)[C@H](O)[C@@H]3O)[C@@H](O)[C@H]2O)C=CC1 [NADH, Reduced nicotinamide adenine dinucleotide] was tested. Which Kd [1, 8] did it give?
A: 1200 ± 150 nM

Q: And the Kd [1, 9]?
A: 200 nM

Q: How did the IC50 [2] turn out when Nc1c(S(=O)(=O)O)cc(Nc2ccc(Nc3nc(Cl)nc(Nc4cccc(S(=O)(=O)O)c4)n3)c(S(=O)(=O)O)c2)c2c1C(=O)c1ccccc1C2=O [Reactive Blue 2] was run?
A: 1500 nM

Q: What about the “reversibility of the inhibition” value (dehydrogenases) of the same compound?
A: full reversible inhibition

Q: What about the IC50 [3] of the same compound?
A: 2500 nM

Q: What about the IC50 [4] of the same compound?
A: 2000 nM

Q: And the IC50 [5]?
A: 1100 nM

Q: What about the IC50 [6] of the same compound?
A: 1000 nM

Q: O=S(=O)(O)c1cc(Nc2nc(Cl)nc(Nc3ccc(Nc4nc(Cl)nc(Nc5cc(S(=O)(=O)O)cc6cc(S(=O)(=O)O)c(N=Nc7ccccc7S(=O)(=O)O)c(O)c56)n4)cc3)n2)c2c(O)c(N=Nc3ccccc3S(=O)(=O)O)c(S(=O)(=O)O)cc2c1 [Reactive Red 120] was tested. Which IC50 [2] did it give?
A: 9.7 nM

Q: And the Kd ([7]; calculated, based on curve shape)?
A: 5.8 nM

Q: What about the IC50 [7] of the same compound?
A: 310 nM

Q: What about the “reversibility of the inhibition” value (dehydrogenases) of the same compound?
A: full reversible inhibition

Q: What about the Kd [1, 10] of the same compound?
A: 54 nM

Q: What about the IC50 [3] of the same compound?
A: 246 nM

Q: And the “mode of inhibition versus oxidoreductase common ligand (NADPH)” value [4]?
A: competitive

Q: And the IC50 [4]?
A: 230 nM

Q: What about the IC50 [5] of the same compound?
A: 220 nM

Q: What about the IC50 [6] of the same compound?
A: 360 nM

Q: What about the “displacement of FITC-NADPH from the FITC-NADPH:DOXPR complex” value (DOXPR) of the same compound?
A: completely displaced

Q: What does the source list for Nc1c(S(=O)(=O)O)cc(Br)c2c1C(=O)c1ccccc1C2=O [bromaminic acid]?
A: Kd [1, 8]: 30000 ± 2200 nM; Kd [1, 9]: 5000 nM

Q: Reactive Green 5 was tested. Which IC50 [2] did it give?
A: 590 nM

Q: And the “reversibility of the inhibition” value (dehydrogenases)?
A: full reversible inhibition

Q: And the Kd [1, 10]?
A: 15 nM

Q: What about the “mode of inhibition versus oxidoreductase common ligand (NADPH)” value [4] of the same compound?
A: competitive

Q: And the IC50 [5]?
A: 230 nM

Q: And the IC50 [6]?
A: 44 nM

Q: And the “displacement of FITC-NADPH from the FITC-NADPH:DOXPR complex” value (DOXPR)?
A: completely displaced

Q: Which results are given for Sulphophthalocyanine?
A: binding to DOXPR ([4]; tested for inhibition of DOXPR): binds; binding to DHPR ([5]; tested for inhibition of DHPR): binds
